Source: the NIST ThermoML archive (doi:10.1021/je4000372)
± gives the expanded uncertainty stated by the source.

Experiments:
[1] = 101 kPa, Liquid; for viscosity: Capillary tube (Ostwald / Ubbelohde) method; for mass density: Pycnometric method
[2] = xn = mol fraction of the nth substance listed; conditions: 101 kPa, Liquid; for viscosity: Capillary tube (Ostwald / Ubbelohde) method; for mass density: Pycnometric method

Row | Compound | viscosity ([1]; 293.15 K) [mPa·s] | mass density ([1]; 293.15 K) [kg/m3] | viscosity ([1]; 303.15 K) [mPa·s] | mass density ([1]; 303.15 K) [kg/m3] | viscosity ([1]; 313.15 K) [mPa·s] | mass density ([1]; 313.15 K) [kg/m3] | viscosity ([1]; 323.15 K) [mPa·s] | mass density ([1]; 323.15 K) [kg/m3] | viscosity ([1]; 333.15 K) [mPa·s] | mass density ([1]; 333.15 K) [kg/m3] | further results
1 | NCCO [2-aminoethan-1-ol] | 24.14 ± 0.76 | 1016.1 ± 2.1 | 14.88 ± 0.48 | 1008.4 ± 2.1 | 9.93 ± 0.32 | 1000.1 ± 2.1 | 6.89 ± 0.22 | 991.9 ± 2.1 | 4.97 ± 0.16 | 983.6 ± 2.1 | 
2 | NCCO [2-aminoethan-1-ol] + CCCCOCCOCCO |  |  |  |  |  |  |  |  |  |  | viscosity ([2]; 293.15 K, x2 = 0): 24.14 ± 0.76 mPa·s; mass density ([2]; 293.15 K, x2 = 0): 1016.1 ± 2.1 kg/m3; viscosity ([2]; 303.15 K, x2 = 0): 14.88 ± 0.48 mPa·s; mass density ([2]; 303.15 K, x2 = 0): 1008.4 ± 2.1 kg/m3; viscosity ([2]; 313.15 K, x2 = 0): 9.93 ± 0.32 mPa·s; mass density ([2]; 313.15 K, x2 = 0): 1000.1 ± 2.1 kg/m3; viscosity ([2]; 323.15 K, x2 = 0): 6.89 ± 0.22 mPa·s; mass density ([2]; 323.15 K, x2 = 0): 991.9 ± 2.1 kg/m3; viscosity ([2]; 333.15 K, x2 = 0): 4.97 ± 0.16 mPa·s; mass density ([2]; 333.15 K, x2 = 0): 983.6 ± 2.1 kg/m3
3 | CCCCOCCOCCO [3,6-dioxa-1-decanol] | 5.84 ± 0.18 | 952.9 ± 2.1 | 4.23 ± 0.13 | 943.5 ± 2 | 3.22 ± 0.1 | 935.7 ± 2 | 2.51 ± 0.08 | 926.6 ± 2 | 2 ± 0.06 | 918.5 ± 2 | 
4 | CCCCOCCOCCO [3,6-dioxa-1-decanol] + OCCN(CCO)CCO |  |  |  |  |  |  |  |  |  |  | viscosity ([2]; 293.15 K, x1 = 1): 5.84 ± 0.18 mPa·s; mass density ([2]; 293.15 K, x1 = 1): 952.9 ± 2.1 kg/m3; viscosity ([2]; 303.15 K, x1 = 1): 4.23 ± 0.13 mPa·s; mass density ([2]; 303.15 K, x1 = 1): 943.5 ± 2 kg/m3; viscosity ([2]; 313.15 K, x1 = 1): 3.22 ± 0.1 mPa·s; mass density ([2]; 313.15 K, x1 = 1): 935.7 ± 2 kg/m3; viscosity ([2]; 323.15 K, x1 = 1): 2.51 ± 0.08 mPa·s; mass density ([2]; 323.15 K, x1 = 1): 926.6 ± 2 kg/m3; viscosity ([2]; 333.15 K, x1 = 1): 2 ± 0.06 mPa·s; mass density ([2]; 333.15 K, x1 = 1): 918.5 ± 2 kg/m3
5 | OCCNCCO [diethanolamine] | 890.9 ± 49 | 1096.1 ± 2.3 | 382.2 ± 18 | 1089.8 ± 2.2 | 187.6 ± 7.4 | 1083.7 ± 2.2 | 99.11 ± 3.4 | 1077.4 ± 2.2 | 58.12 ± 1.9 | 1070.7 ± 2.2 | 
6 | OCCNCCO [diethanolamine] + CCCCOCCOCCO |  |  |  |  |  |  |  |  |  |  | viscosity ([2]; 293.15 K, x2 = 0): 890.9 ± 49 mPa·s; mass density ([2]; 293.15 K, x2 = 0): 1096.1 ± 2.3 kg/m3; viscosity ([2]; 303.15 K, x2 = 0): 382.2 ± 18 mPa·s; mass density ([2]; 303.15 K, x2 = 0): 1089.8 ± 2.2 kg/m3; viscosity ([2]; 313.15 K, x2 = 0): 187.6 ± 7.4 mPa·s; mass density ([2]; 313.15 K, x2 = 0): 1083.7 ± 2.2 kg/m3; viscosity ([2]; 323.15 K, x2 = 0): 99.11 ± 3.4 mPa·s; mass density ([2]; 323.15 K, x2 = 0): 1077.4 ± 2.2 kg/m3; viscosity ([2]; 333.15 K, x2 = 0): 58.12 ± 1.9 mPa·s; mass density ([2]; 333.15 K, x2 = 0): 1070.7 ± 2.2 kg/m3
7 | OCCN(CCO)CCO [triethanolamine] | 917.6 ± 51 | 1124.3 ± 2.3 | 404.7 ± 19 | 1118.5 ± 2.3 | 203.9 ± 8.2 | 1112.8 ± 2.3 | 108.3 ± 3.8 | 1107.1 ± 2.3 | 64.2 ± 2.2 | 1101.5 ± 2.3 | 
